Converted amounts (≈) assume the structure as drawn.
Settings: buffer; pH 7.4; 200.0 µM

Row | SMILES | solubility kinetic [µg/mL]
1 | NS(=O)(=O)c1cccc(NC(=O)c2ccno2)c1 | > 40.1
2 | COC(=O)c1ccccc1NCC(=O)c1ccc(OC)cc1 | 11.2 (≈ 37.4 µM)
3 | Clc1ccc(COC(Cn2ccnc2)c2ccc(Cl)cc2Cl)c(Cl)c1.O=[N+]([O-])O (stereo not given) | 26.3
4 | CCC(C)(C)NC(=O)c1ccc2c(c1)OCCO2 | > 37.4
5 | CC(=O)c1cccc(NC(=O)COC(=O)CCC(=O)c2ccc(F)cc2)c1 | 53.9 (≈ 145 µM)
6 | OCc1ccc(OCCCOc2cccc3cccnc23)cc1 | 30.5 (≈ 98.6 µM)
7 | CN1CCCC(OC(=O)c2ccc(C(C)(C)C)cc2)C1.Cl (stereo not given) | > 46.8
8 | COc1cccc(NC(=O)CC(=O)c2ccc([N+](=O)[O-])cc2)c1 | 4.3 (≈ 13.7 µM)
9 | Cc1cc(Cl)ccc1OCC(=O)NC(=S)Nc1ccc(Cl)cn1 | < 0.3
10 | CC(C)C(=O)NC(=O)COC(=O)/C=C/c1cccs1 | 21.6 (≈ 76.8 µM)
11 | COc1ccc(S(=O)(=O)NCCCN2CCCC2=O)cc1OC | 47.4 (≈ 138 µM)
12 | Cc1nc(-c2noc(-c3ccccc3Cl)n2)c(C(F)(F)F)o1 | 0.6 (≈ 1.82 µM)
13 | O=C1CN=C(c2ccc(F)cc2)c2oc3ccccc3c2N1 | 0.4 (≈ 1.36 µM)
14 | Cc1ccc2[nH]c3c(Cl)ncnc3c2c1 | 13.3 (≈ 61.1 µM)
15 | O=C(NNC(=O)c1ccccn1)c1ccc(OC(F)F)cc1 | > 46.1
16 | COc1ccc(NCc2cccnc2)cc1 | 26.8 (≈ 125 µM)
17 | O=C(O)C1C2CCC(O2)C1C(=O)Nc1ccccc1Br (stereo not given) | > 51
18 | COc1ccc(NC(=S)N(C)CC2COc3ccccc3O2)cc1 (stereo not given) | 2.6 (≈ 7.55 µM)
19 | Cn1ccnc1C(O)(c1ccccc1)c1ccccc1 | 35.4 (≈ 134 µM)
20 | CCCNS(=O)(=O)c1cc2c3c(c1)CCN3C(=O)CC2 | > 44.2
21 | COc1ccc(CN2C(=O)CNC2=S)cc1 | > 35.4
22 | Cc1ccc(S(=O)(=O)N2CCN(c3ccc([N+](=O)[O-])cn3)CC2)cc1 | < 0.2
23 | O=C(/C=C/c1ccccc1Cl)Nc1cccnc1 | 27 (≈ 104 µM)
24 | CC(=O)NC(Cc1c[nH]c2ccccc12)C(=O)NCCc1ccccn1 (stereo not given) | > 52.6

Row | SMILES | solubility kinetic [µg/mL]
25 | O=CC(Br)P(=O)(N1CCOCC1)N1CCOCC1 (stereo not given) | > 51.2
26 | CCOC(=O)CC(NC(=O)c1ccccc1)c1ccc(OC)cc1 (stereo not given) | 36.4 (≈ 111 µM)
27 | Cc1cc(C(=O)NC2CCCc3ccccc32)ccc1[N+](=O)[O-] (stereo not given) | 10.3 (≈ 33.2 µM)
28 | NC(=O)N1CCc2ccccc21 | > 24.3
29 | COc1ccc(NC(=O)Cc2ccc(C)c(C)c2)cc1S(=O)(=O)N1CCCCC1 | 12.8 (≈ 30.7 µM)
30 | Nc1nc(Nc2ccccc2)nc(N2CCCC2)c1[N+](=O)[O-] | 27.6 (≈ 91.9 µM)
31 | CN(Cc1ccccc1)S(=O)(=O)c1ccc(NC(=O)C2CCCCC2C(=O)O)cc1 (stereo not given) | > 64.6
32 | O=C(NCCc1csc(-c2cccnc2)n1)c1c(F)cccc1F | 48.9 (≈ 142 µM)
33 | CCOC(=O)C1CCN(C(=O)CCC2CCCC2)CC1 | 37.6 (≈ 134 µM)
34 | O=C(NC(=S)Nc1ncccn1)c1ccccc1Br | 23.5 (≈ 69.7 µM)
35 | Cn1ccnc1COc1ccc(/C=N/O)cc1 | > 34.7
36 | Cc1cc(C(=O)OCC(=O)Nc2cccc([N+](=O)[O-])c2)c(C)o1 | 3.8 (≈ 11.9 µM)
37 | Cc1ccc(OC(=O)CCC(=O)Nc2ccc(C(N)=O)cc2)cc1 | > 49
38 | Cc1ccccc1NC(=S)N1CCC(NC(=O)c2ccco2)CC1 | 47.1 (≈ 137 µM)
39 | Fc1cccc(F)c1-c1nc(-c2ccncc2)no1 | 14.7 (≈ 56.7 µM)
40 | COCCNC(=O)/C(C#N)=C/c1ccc(C(=O)O)cc1 | > 41.1
41 | Cc1ccc(S(=O)(=O)N(C)C)cc1NC(=O)C(C)OC(=O)C1CCC1 (stereo not given) | > 55.3
42 | COc1ccc(C(=O)CNc2ccccc2Br)cc1 | 5.6 (≈ 17.5 µM)
43 | COc1ccc(OC(=O)N2CCOCC2)cc1 | > 35.6
44 | CC(C(=O)O)c1ccc(N2Cc3ccccc3C2=O)cc1 (stereo not given) | > 42.2
45 | CC(NC(=O)c1ccncc1)c1ccc(Br)cc1 (stereo not given) | > 45.8
46 | COc1cccc(NC(=O)CN2CCCCCC2)c1.Cl | 44.1
47 | C[n+]1ccc(C(=O)NCc2ccccc2)cc1.[I-] | 39.3
48 | COc1cc(/C=C(\C#N)C(=O)NC(C)C)cc(Cl)c1O | 28.4 (≈ 96.4 µM)

Row | SMILES | solubility kinetic [µg/mL]
49 | Cc1nc2ccc([N+](=O)[O-])cc2c(=O)n1Cc1ccccc1Br | 2 (≈ 5.34 µM)
50 | O=C(COC(=O)C1CC1)Nc1ccc2c(c1)OCO2 | > 39.5
51 | CCOc1ccc(-c2cnc(N)n2C)cc1 | 31.8 (≈ 146 µM)
52 | Cc1noc(NS(=O)(=O)c2ccc(NC(=O)COc3ccc(C#N)cc3)cc2)c1C | > 64
53 | CCCN1CCN(CC(=O)Nc2nc3ccccc3s2)CC1 | 0.6 (≈ 1.88 µM)
54 | O=C(CSc1ncccn1)NC(=O)Cc1ccccc1 | > 43.1
55 | CCc1c(C)c2cc(Cl)c(O)c(CN3CCCC3)c2oc1=O | 30.5 (≈ 94.8 µM)
56 | Cc1ccc(-c2csc(N=C(N)N)n2)cc1 | 15.7 (≈ 67.6 µM)
57 | CCOC(=O)c1ccc(NC(=S)Nc2cccc(N)n2)cc1 | 2.3 (≈ 7.27 µM)
58 | Cc1cc(C)cc(NC(=O)c2cc(C)nc3ccccc23)c1 | < 0.3
59 | COc1ccc(/C=C2/NC(=O)CNC2=O)cc1 | > 34.8
60 | O=C(NCc1ccc2c(c1)OCO2)c1cc([N+](=O)[O-])ccc1N1CCOCC1 | > 57.8
61 | S=C1NCN(Cc2ccco2)CN1c1ccccc1 | > 41
62 | N#C/C(=C\c1ccc(N2CCCCC2)o1)C(N)=O | > 36.8
63 | COc1ccc(C(=O)C[n+]2ccc(N(C)C)cc2)cc1.[Cl-] | > 46
64 | O=C(COc1ccccc1F)NCc1ccc(-n2cccc2)cc1 | 1.1 (≈ 3.39 µM)
65 | O=[N+]([O-])c1cccnc1Oc1ccc(F)cc1F | 28.3 (≈ 112 µM)
66 | CCOc1ccc(N2C(=O)CSC2=S)cc1 | < 0.5
67 | CCCN1C(=O)CC(=O)N=C1SCC(=O)Nc1ccccc1F | > 50.6
68 | Cc1ccc(CNC(=O)c2cc(Cl)cc(Cl)c2)n1C | 11.1 (≈ 37.4 µM)
69 | CN(Cc1ccccc1)S(=O)(=O)c1ccc(N2CCOCC2)nc1 | 2.5 (≈ 7.2 µM)
70 | COc1ccc(OCC(=O)OCC(=O)Nc2cc(S(=O)(=O)N3CCOCC3)ccc2Cl)cc1 | 62.5 (≈ 125 µM)
71 | O=C(O)c1ccc(NC(=S)NCc2ccccc2)cc1 | > 43
72 | O=[N+]([O-])c1ccccc1-c1ccc(C(=S)N2CCCC2)o1 | 9.4 (≈ 31.1 µM)

Row | SMILES | solubility kinetic [µg/mL]
73 | Cc1c(C(=O)CN2CCN(c3ccccc3)CC2)c2ccccc2n1C | 39.6 (≈ 114 µM)
74 | COc1ccc(-c2cc(C(=O)Nc3cc(C)on3)no2)cc1OC | < 0.2
75 | O=C(Nc1ncccc1O)c1ccc(Oc2ccccc2)cc1 | > 45.9
76 | O=C(Nc1cc(Cl)cc(Cl)c1)c1cccnc1 | 17.6 (≈ 65.9 µM)
77 | O=c1[nH]c(/C=C/c2ccc(Br)cc2)nc2ccccc12 | 0.8 (≈ 2.45 µM)
78 | O=C(CSCc1c(F)cccc1Cl)NCCc1ccccc1 | 40.2 (≈ 119 µM)
79 | CCc1ccccc1N1CC(C(=O)N2Cc3ccccc3CC2C(N)=O)CC1=O (stereo not given) | > 58.7
80 | Cn1c(=O)c2ccccc2n(Cc2cccc(F)c2)c1=O | 3.6 (≈ 12.7 µM)
81 | CCC(=O)c1ccc(OCCn2cnc3ccccc32)cc1.Cl | 43.7
82 | COc1ccc(NC(=O)Nc2cccc(C)n2)c(OC)c1 | < 0.2
83 | O=C(Nc1ccccc1Cl)NC1(C(=O)N2CCOCC2)CCCCC1 | 25.8 (≈ 70.5 µM)
84 | CC1(C2CC2)NC(=O)N(CC(=O)Nc2ccccc2C#N)C1=O (stereo not given) | > 46.8
85 | COc1ccc(NC(=O)c2ccco2)cc1NC(=O)c1cccc(F)c1 | < 0.4
86 | Cc1ccc(C(C)NC(=O)c2ccncc2)cc1C (stereo not given) | > 38.1
87 | O=C1C2CCCCN2C(=O)N1CCCCN1CCN(c2ccc(F)cc2)CC1 (stereo not given) | 43.5 (≈ 112 µM)
88 | CCCn1c(=O)c(-c2nc3ccccc3[nH]2)c(O)c2ccccc21 | 0.4 (≈ 1.25 µM)
89 | CC(C)Nc1nc(Cl)nc(Nc2ccccc2)n1 | 27.3 (≈ 104 µM)
90 | CCOC(=O)C(=O)N1CCC(C(=O)OCC)CC1 | > 38.6
91 | Cc1cccc(OCCn2ccnc2)c1 | 20.9 (≈ 103 µM)
92 | CC(=O)Nc1ccc(-c2csc(Nc3ncccn3)n2)cc1 | 0.4 (≈ 1.28 µM)
93 | Cc1ccc(C(=O)CCc2ccc(N)cc2)cc1 | 34.9 (≈ 146 µM)
94 | CC(C)(Oc1ccc(Cl)cc1)C(=O)N1CCC(C(N)=O)CC1 | 48.7 (≈ 150 µM)
95 | O=C(O)c1cc(NS(=O)(=O)c2ccc(F)cc2)cc(NS(=O)(=O)c2ccc(F)cc2)c1 | > 70.3
96 | FC(F)(F)c1cc(NC2CCCCC2)ccn1 | 28 (≈ 115 µM)

Row | SMILES | solubility kinetic [µg/mL]
97 | Cc1cccc(NC(=O)CN(C)C(=O)C2CC2)c1C | > 39.1
98 | CN1CCN(c2nc(-c3ccccc3)ncc2S(C)(=O)=O)CC1 | > 49.9
99 | O=C(Nc1cccc(Cl)c1Cl)C1CCCC1 | 3.9 (≈ 15.1 µM)
100 | CCCOc1ccc(/C=C/C(=O)NC2CCCCC2)cc1 | < 0.6
101 | O=C(COC(=O)c1ccc[nH]c1=O)NCCC1=CCCCC1 | 41.1 (≈ 135 µM)
102 | CN(C)c1ccc(-n2cccc2)cc1 | 1.1 (≈ 5.91 µM)
103 | Cc1ccc(-c2nc3ncccc3o2)cc1NC(=O)c1cccnc1 | 7.6 (≈ 23 µM)
104 | COc1cccc(-c2onc3ccc(C(=O)/C=C/N(C)C)cc23)c1 | 14.6 (≈ 45.3 µM)
105 | Cc1ccc(C23CC4CC(CC(C(=O)NC(C)C(=O)O)(C4)C2)C3)cc1 (stereo not given) | > 51.2
106 | CCn1cc(CN2CCN(C)C(CCO)C2)c2ccccc21 (stereo not given) | 45 (≈ 149 µM)
107 | O=C(Nc1ccc(F)cc1)C(NC1CCCCC1)c1ccccc1 (stereo not given) | 40.6 (≈ 124 µM)
108 | O=C(O)CNC(=O)c1ccc(N2CCOCC2)cc1[N+](=O)[O-] | > 46.4
109 | Cc1nc(-c2cc(-c3nc(-c4ccc(C(C)(C)C)cc4)no3)no2)cs1 | < 0.2
110 | O=C1NC(=Nc2ccc(F)cc2)CS1 | > 31.5
111 | Cc1ccc2oc(/N=C(\N)NC(=O)C(C)(C)C)nc2c1 | 1.2 (≈ 4.37 µM)
112 | CCS(=O)(=O)N1CCC(C(=O)NCc2ccc3c(c2)OCO3)CC1 | > 53.2
113 | O=C(Nc1ccc(O)cc1)c1ccc(NC(=O)c2ccco2)cc1 | 1.8 (≈ 5.58 µM)
114 | Cc1ccc(O)c(NC(=O)C2CC(c3cccc(Br)c3)=NO2)c1 (stereo not given) | < 0.4
115 | COC(=O)Nc1sc2c(c1C(N)=O)CCC(C)C2 (stereo not given) | 5 (≈ 18.6 µM)
116 | CCn1c(NC(=O)c2ccccc2)nc2ccccc21 | 3 (≈ 11.3 µM)
117 | COc1ccc(/C=N/OC(=O)c2ccc(Cl)cc2)c(Cl)c1OC | < 0.8
118 | CCCCn1c(N)c(C(=O)NCc2cccs2)c2nc3ccccc3nc21 | 1.6 (≈ 4.22 µM)
119 | CC(=O)N(C)c1ccc(C(O)(C(F)(F)F)C(F)(F)F)cc1 | > 47.3
120 | COc1ccc(NC(=O)c2csc(C)c2)cc1OC | > 41.6

From PubChem BioAssay AID1996
